# Laboratory results reported in patent publication US8889591B2, “Herbicidal compositions comprising 4-amino-3-chloro-5-fluoro-6-(4-chloro-2-fluoro-3-methoxyphenyl)pyridine-2-carboxylic acid or a derivative thereof and bromobutide, daimuron, oxaziclomefone or pyributicarb” (Dow Agrosciences LLC, priority 2012, dated 2014).
# Experiments:
# Assay in all cases: Postemergence foliar-applied greenhouse weed control, direct-seeded rice system
# ECHCO = format: in vivo, Echinochloa colona (L.) Link
# Text: (§1) Seeds or nutlets of the desired test plant species were planted in a soil matrix prepared by mixing a loam or sandy loam soil (e.g., 28.6 percent silt, 18.8 percent clay, and 52.6 percent sand, with a pH of about 5.8 and an organic matter content of about 1.8 percent) and calcareous grit in an 80 to 20 ratio. The soil matrix was contained in plastic pots with a volume of 1 quart and a surface area of 83.6 square centimeters (cm^2). When required to ensure good germination and healthy plants, a fungicide treatment and/or other chemical or physical treatment was applied. The plants were grown for 8-22 days in a greenhouse with an approximate 14 h photoperiod which was maintained at about 29° C. during the day and 26° C. during the night. Nutrients (Peters Excel® 15-5-15 5-Ca 2-Mg and iron chelate) were applied in the irrigation solution as needed and water was added on a regular basis. Supplemental lighting was provided with overhead metal halide 1000-Watt lamps as necessary. The plants were employed for testing when they reached the first through fourth true leaf stage.
# (§2) Treatments consisted of the acid or esters of 4-amino-3-chloro-5-fluoro-6-(4-chloro-2-fluoro-3-methoxy-phenyl)pyridine-2-carboxylic acid (Compound A), each formulated as an SC (suspension concentrate), and various herbicidal components alone and in combination. Forms of compound A were applied on an acid equivalent basis.
# (§3) Other herbicidal components were applied on an active ingredient basis and included diamuron formulated as an EC (emulsifiable concentrate) and oxaziclomefone (technical grade material).
# (§4) Treatment requirements were calculated based upon the rates being tested, the concentration of active ingredient or acid equivalent in the formulation, and a 12 mL application volume at a rate of 187 L/ha.
# (§5) For treatments comprised of formulated compounds, measured amounts of compounds were placed individually in 25 mL glass vials and diluted in a volume of 1.25% (v/v) Agri-Dex® crop oil concentrated to obtain 12× stock solutions. […] Application solutions were prepared by adding an appropriate amount of each stock solution (e.g., 1 mL) and diluted to the appropriate final concentrations with the addition of 10 mL of an aqueous mixture of 1.25% (v/v) crop oil concentrate so that the final spray solutions contained 1.25+/−0.05% (v/v) crop oil concentrate.
# (§6) For treatments comprised of technical compounds, weighed amounts can be placed individually in 25 mL glass vials and dissolved in a volume of 97:3 v/v acetone/DMSO to obtain 12× stock solutions. […] Application solutions can be prepared by adding an appropriate amount of each stock solution (e.g., 1 mL) and diluted to the appropriate final concentrations with the addition of 10 mL of an aqueous mixture of 1.5% (v/v) crop oil concentrate so that the final spray solutions contain 1.25% (v/v) crop oil concentrate. When technical materials are used, the concentrated stock solutions can be added to the spray solutions so that the final acetone and DMSO concentrations of the application solutions are 16.2% and 0.5%, respectively.
# (§7) For treatments comprised of formulated and technical compounds, weighed amounts of the technical materials were placed individually in 25 mL glass vials and dissolved in a volume of 97:3 v/v acetone/DMSO to obtain 12× stock solutions, and measured amounts of the formulated compounds were placed individually in 25 mL glass vials and diluted in a volume of 1.5% (v/v) crop oil concentrate or water to obtain 12× stock solutions. […] Application solutions were prepared by adding an appropriate amount of each stock solution (e.g., 1 mL) and diluted to the appropriate final concentrations with the addition of an appropriate amount of an aqueous mixture of 1.5% (v/v) crop oil concentrate so that the final spray solutions contained 1.25% (v/v) crop oil concentrate. […]
# CYPIR = format: in vivo, Cyperus iria L.
# Text: as §1, with “stage. […]” for “stage.”
# as §4
# (§8) For treatments comprised of formulated compounds, measured amounts of compounds were placed individually in 25 mL glass vials and diluted in a volume of 1.25% (v/v) Agri-Dex® crop oil concentrated to obtain 12× stock solutions. […]
# (§9) For treatments comprised of formulated and technical compounds, weighed amounts of the technical materials were placed individually in 25 mL glass vials and dissolved in a volume of 97:3 v/v acetone/DMSO to obtain 12× stock solutions, and measured amounts of the formulated compounds were placed individually in 25 mL glass vials and diluted in a volume of 1.5% (v/v) crop oil concentrate or water to obtain 12× stock solutions. […]
# SCPJU = format: in vivo, Schoenoplectus juncoides (Roxb.) Palla
# Text: as §1, with “stage. […]” for “stage.”
# as §4, §8, §9
# BRAPP = format: in vivo
# Text: as §1, §2, §3, §4, §5, §6, §7
# LEFCH = format: in vivo, Leptochloa chinensis (L.) Nees
# Text: as §1, §2, §3, §4, §5, §6, §7
# [1] = Compound A Benzyl Ester 4.38 gae/ha alone
# [2] = Compound A Benzyl Ester 8.75 gae/ha alone
structure (smiles),measurement,setting,value
COc1c(Cl)ccc(-c2nc(C(=O)OCc3ccccc3)c(Cl)c(N)c2F)c1F [Compound A Benzyl Ester],Visual Weed Control (%) - 20 DAA ECHCO Obs,ECHCO; [1],40%
same,Visual Weed Control (%) - 20 DAA ECHCO Obs,ECHCO; [2],90%
same,Visual Weed Control (%) - 22 DAA CYPIR Obs,CYPIR; [1],25%
same,Visual Weed Control (%) - 22 DAA CYPIR Obs,CYPIR; [2],50%
same,Visual Weed Control (%) - 22 DAA SCPJU Obs,SCPJU; [1],75%
same,Visual Weed Control (%) - 22 DAA SCPJU Obs,SCPJU; [2],80%
same,Visual Weed Control (%) - 20 DAA BRAPP Obs,BRAPP; [1],50%
same,Visual Weed Control (%) - 20 DAA BRAPP Obs,BRAPP; [2],70%
same,Visual Weed Control (%) - 20 DAA LEFCH Obs,LEFCH; [1],10%
same,Visual Weed Control (%) - 20 DAA LEFCH Obs,LEFCH; [2],20%
same,Visual Weed Control (%) - 20 DAA LEFCH Obs,LEFCH; Compound A Benzyl Ester 17.5 gae/ha alone,50%
